Source: ChEMBL document CHEMBL1944555, “Selective and slow-binding inhibition of shikonin derivatives isolated from Lithospermum erythrorhizon on glycosyl hydrolase 33 and 34 sialidases” (Bioorg Med Chem, 2012)
Activity calls are given as the source filed them. The calls are words filed in the database; no cut-off is given here.

Key:
[1] = (§1) Inhibition of Clostridium perfringens ATCC 10543 sialidase Nan1 c-terminal catalytic domain using 4-methylumbelliferyl-alpha-D-N-acetylneuraminic acid sodium salt hydrate as substrate by fluorimetric analysis
Clostridium perfringens [2] = assay: as §1
[3] = Reversible inhibition of Clostridium perfringens ATCC 10543 sialidase Nan1 c-terminal catalytic domain using 4-methylumbelliferyl-alpha-D-N-acetylneuraminic acid sodium salt hydrate as substrate compound pre-incubated prior to substrate addition by fluorimetric analysis; details: read-out: Ki(app)
Clostridium perfringens [4] = assay: Inhibition of Clostridium perfringens ATCC 10543 sialidase Nan1 c-terminal catalytic domain using 4-methylumbelliferyl-alpha-D-N-acetylneuraminic acid sodium salt hydrate as substrate at IC50 concentration pre-incubated for 10 mins prior substrate addition by fluorimetric analysis; details: TDE = time-dependent effect
[5] = target: Neuraminidase (Influenza A virus (strain A/Brevig Mission/1/1918 H1N1) (Influenza Avirus (strain A/South Carolina/1/1918 H1N1))) (UniProt Q9IGQ6); assay: Noncompetitive inhibition of recombinant influenza A virus H1N1 A/Bervig_Mission/1/18 sialidase activity using 4-methylumbelliferyl-alpha-D-N-acetylneuraminic acid sodium salt hydrate as substrate by Lineweaver-Burk and Dixon plot analysis; details: Influenza A virus (A/Brevig Mission/1/1918(H1N1))
[6] = Inhibition of beta-glucosidase at 200 uM
[7] = Inhibition of alpha-glucosidase
[8] = Inhibition of rhamnosidase at 200 uM
Clostridium perfringens [9] = assay: Competitive inhibition of Clostridium perfringens ATCC 10543 sialidase Nan1 c-terminal catalytic domain using 4-methylumbelliferyl-alpha-D-N-acetylneuraminic acid sodium salt hydrate as substrate by Lineweaver-Burk and Dixon plot analysis
[10] = target: Neuraminidase (Influenza A virus (strain A/Brevig Mission/1/1918 H1N1) (Influenza Avirus (strain A/South Carolina/1/1918 H1N1)), UniProt Q9IGQ6); assay: (§2) Inhibition of recombinant influenza A virus H1N1 A/Bervig_Mission/1/18 sialidase activity using 4-methylumbelliferyl-alpha-D-N-acetylneuraminic acid sodium salt hydrate as substrate by fluorimetric analysis; parameters: species or system Influenza A virus (A/Brevig Mission/1/1918(H1N1))
[11] = target: Neuraminidase (Influenza A virus (strain A/Brevig Mission/1/1918 H1N1) (Influenza Avirus (strain A/South Carolina/1/1918 H1N1))) (UniProt Q9IGQ6); assay: as §2; details: Influenza A virus (A/Brevig Mission/1/1918(H1N1))
[12] = Inhibition of alpha-glucosidase at 200 uM
[13] = target: Neuraminidase (Influenza A virus (strain A/Brevig Mission/1/1918 H1N1) (Influenza Avirus (strain A/South Carolina/1/1918 H1N1))) (UniProt Q9IGQ6); assay: Inhibition of recombinant influenza A virus H1N1 A/Bervig_Mission/1/18 sialidase activity using 4-methylumbelliferyl-alpha-D-N-acetylneuraminic acid sodium salt hydrate as substrate at 200 uM by fluorimetric analysis; details: Influenza A virus (A/Brevig Mission/1/1918(H1N1))

Chain of Neuraminidase (Influenza A virus (strain A/Brevig Mission/1/1918 H1N1) (Influenza Avirus (strain A/South Carolina/1/1918 H1N1))) (Q9IGQ6 whole entry): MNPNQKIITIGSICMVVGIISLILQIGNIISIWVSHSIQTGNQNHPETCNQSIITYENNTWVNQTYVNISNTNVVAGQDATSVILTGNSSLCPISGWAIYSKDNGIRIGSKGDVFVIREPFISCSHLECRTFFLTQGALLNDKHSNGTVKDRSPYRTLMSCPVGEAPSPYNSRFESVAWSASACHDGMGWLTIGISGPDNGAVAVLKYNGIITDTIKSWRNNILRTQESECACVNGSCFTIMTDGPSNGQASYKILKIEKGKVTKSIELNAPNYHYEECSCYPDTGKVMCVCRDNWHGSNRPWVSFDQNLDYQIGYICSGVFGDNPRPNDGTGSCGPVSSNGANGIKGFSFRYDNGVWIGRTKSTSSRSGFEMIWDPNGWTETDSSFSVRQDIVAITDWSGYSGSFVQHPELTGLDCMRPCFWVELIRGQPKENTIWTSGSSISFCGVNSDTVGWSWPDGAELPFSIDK
Chain of Neuraminidase (Influenza A virus (strain A/Brevig Mission/1/1918 H1N1) (Influenza Avirus (strain A/South Carolina/1/1918 H1N1)), UniProt Q9IGQ6) (Q9IGQ6 whole entry): as above

With `CC(=O)O[C@H](CC=C(C)C)C1=CC(=O)c2c(O)ccc(O)c2C1=O` [ACETYLSHIKONIN] as the compound, how does the IC50 [1] read?
Its IC50 is 2.5 µM.

And the inhibition (Clostridium perfringens [2])?
The inhibition was “Dose-dependent effect”.

And the Ki [3]?
Its Ki is 1.01 µM.

What about the inhibition (Clostridium perfringens [4]) of the same compound?
The inhibition was “tde”.

What about the inhibition [5] of the same compound?
Its inhibition is “Active”.

What about the inhibition [6] of the same compound?
Its inhibition is “inactive”.

What about the IC50 [7] of the same compound?
The IC50 was 158 µM.

What about the inhibition [8] of the same compound?
The inhibition was “inactive”.

And the Kic (Clostridium perfringens [9])?
Its Kic is 1.1 µM.

And the IC50 [10]?
The IC50 was 41.4 µM.

And the inhibition [11]?
The inhibition was “Dose-dependent effect”.

Which IC50 [1] does the source give for `CC(C)=CC[C@@H](OC(=O)CC(C)(C)O)C1=CC(=O)c2c(O)ccc(O)c2C1=O` [BETA-HYDROXYISOVALERYLSHIKONIN] here?
Its IC50 is 3.4 µM.

And the inhibition (Clostridium perfringens [2])?
The inhibition was “Dose-dependent effect”.

What about the Ki [3] of the same compound?
Its Ki is 2.24 µM.

And the inhibition (Clostridium perfringens [4])?
The inhibition was “tde”.

What about the inhibition [5] of the same compound?
The inhibition was “Active”.

What about the inhibition [6] of the same compound?
Its inhibition is “inactive”.

What about the inhibition [8] of the same compound?
Its inhibition is “inactive”.

What about the Kic (Clostridium perfringens [9]) of the same compound?
Its Kic is 0.8 µM.

And the inhibition [12]?
Its inhibition is “inactive”.

And the IC50 [10]?
The IC50 was 40.5 µM.

And the inhibition [11]?
The inhibition was “Dose-dependent effect”.

What does the source list for `CC(C)=CCCC1=CC(=O)c2c(O)ccc(O)c2C1=O` [DEOXYSHIKONIN]?
IC50 [1]: 27.5 µM; inhibition (Clostridium perfringens [2]): Dose-dependent effect; Ki [3]: 11.9 µM; inhibition (Clostridium perfringens [4]): tde; inhibition [5]: Active; inhibition [6]: inactive; inhibition [8]: inactive; Kic (Clostridium perfringens [9]): 15.9 µM; inhibition [12]: inactive; IC50 [10]: 63.4 µM; inhibition [11]: Dose-dependent effect

For `CC(C)=CC[C@@H](OC(=O)C=C(C)C)C1=CC(=O)c2c(O)ccc(O)c2C1=O` [DIMETHYLACRYLSHIKONIN], which IC50 [1] is on record?
Its IC50 is 1.9 µM.

What about the inhibition (Clostridium perfringens [2]) of the same compound?
Its inhibition is “Dose-dependent effect”.

What about the Ki [3] of the same compound?
Its Ki is 1.75 µM.

And the inhibition (Clostridium perfringens [4])?
The inhibition was “tde”.

What about the inhibition [5] of the same compound?
Its inhibition is “Active”.

And the inhibition [6]?
The inhibition was “inactive”.

And the IC50 [7]?
Its IC50 is 141 µM.

And the inhibition [8]?
The inhibition was “inactive”.

What about the Kic (Clostridium perfringens [9]) of the same compound?
Its Kic is 0.6 µM.

What about the IC50 [10] of the same compound?
Its IC50 is 47.3 µM.

And the inhibition [11]?
Its inhibition is “Dose-dependent effect”.

With `CC(C)=CC[C@@H](OC(=O)C(C)C)C1=CC(=O)c2c(O)ccc(O)c2C1=O` [ISOBUTYLSHIKONIN] as the compound, how does the IC50 [1] read?
The IC50 was 2.9 µM.

And the inhibition (Clostridium perfringens [2])?
Its inhibition is “Dose-dependent effect”.

And the Ki [3]?
The Ki was 0.26 µM.

What about the inhibition (Clostridium perfringens [4]) of the same compound?
Its inhibition is “tde”.

And the inhibition [5]?
The inhibition was “Active”.

What about the inhibition [6] of the same compound?
The inhibition was “inactive”.

What about the IC50 [7] of the same compound?
Its IC50 is 144 µM.

What about the inhibition [8] of the same compound?
The inhibition was “inactive”.

And the Kic (Clostridium perfringens [9])?
The Kic was 0.9 µM.

What about the IC50 [10] of the same compound?
Its IC50 is 40.5 µM.

What about the inhibition [11] of the same compound?
Its inhibition is “Dose-dependent effect”.

Which results are given for `CC(C)=CC[C@@H](O)C1=CC(=O)c2c(O)ccc(O)c2C1=O` [SHIKONIN]?
IC50 [1]: 53.8 µM; inhibition (Clostridium perfringens [2]): Dose-dependent effect; Ki [3]: 58.8 µM; inhibition (Clostridium perfringens [4]): tde; inhibition [5]: Active; inhibition [6]: inactive; inhibition [8]: inactive; Kic (Clostridium perfringens [9]): 21.4 µM; inhibition [12]: inactive; IC50 [10]: 34.1 µM; inhibition [11]: Dose-dependent effect

Which results are given for `CC(C)=CCC(OC(=O)CC(C)C)c1coc(-c2cc(O)ccc2O)c1` (configuration not stated) [SHIKONOFURAN C]?
inhibition [13]: inactive; IC50 [1]: 0.6 µM; inhibition (Clostridium perfringens [2]): Dose-dependent effect; Ki [3]: 0.15 µM; inhibition (Clostridium perfringens [4]): tde; inhibition [6]: inactive; IC50 [7]: 20.8 µM; inhibition [8]: inactive; Kic (Clostridium perfringens [9]): 0.2 µM; IC50 [10]: > 100 µM

Which inhibition [13] does the source give for `CC(C)=CCC(OC(=O)C(C)C)c1coc(-c2cc(O)ccc2O)c1` (configuration not stated) [SHIKONOFURAN D] here?
Its inhibition is “inactive”.

What about the IC50 [1] of the same compound?
The IC50 was 1 µM.

And the inhibition (Clostridium perfringens [2])?
Its inhibition is “Dose-dependent effect”.

What about the Ki [3] of the same compound?
The Ki was 0.21 µM.

What about the inhibition (Clostridium perfringens [4]) of the same compound?
Its inhibition is “tde”.

What about the inhibition [6] of the same compound?
The inhibition was “inactive”.

And the IC50 [7]?
The IC50 was 37.8 µM.

And the inhibition [8]?
The inhibition was “inactive”.

What about the Kic (Clostridium perfringens [9]) of the same compound?
Its Kic is 0.3 µM.

And the IC50 [10]?
Its IC50 is greater than 100 µM.

For `CC(C)=CCC(OC(=O)C=C(C)C)c1coc(-c2cc(O)ccc2O)c1` (configuration not stated) [SHIKONOFURAN E], which inhibition [13] is on record?
Its inhibition is “inactive”.

And the IC50 [1]?
Its IC50 is 0.2 µM.

What about the inhibition (Clostridium perfringens [2]) of the same compound?
Its inhibition is “Dose-dependent effect”.

What about the Ki [3] of the same compound?
Its Ki is 0.05 µM.

And the inhibition (Clostridium perfringens [4])?
Its inhibition is “tde”.

And the inhibition [6]?
The inhibition was “inactive”.

And the IC50 [7]?
Its IC50 is 26.6 µM.

And the inhibition [8]?
Its inhibition is “inactive”.

What about the Kic (Clostridium perfringens [9]) of the same compound?
The Kic was 0.1 µM.

What about the IC50 [10] of the same compound?
The IC50 was greater than 100 µM.

With `OCC(CO)N[C@H]1C[C@](O)(CO)[C@@H](O)[C@H](O)[C@H]1O` [VOGLIBOSE] as the compound, how does the IC50 [7] read?
Its IC50 is 23.4 µM.
